Reference: PubChem BioAssay (NCI)
Where “and” joins values, the source holds several entries; their conditions need not be identical. Equal entries are not always repeated.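 Protocol summary: plate cells (96-well), add compound at 5 concentrations, incubate 48 h, interpolate endpoints linearly. GI50: concentration for 50% inhibition of growth. TGI: concentration producing complete growth inhibition.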

What was measured:
Test in all cases: NCI anticancer screen, dose series, 48 h
[1] = tested on: K-562 leukemia
[2] = tested on: NCI-H522 lung
[3] = tested on: 786-0 renal
[4] = tested on: HT29 colon
[5] = tested on: SF-539 CNS
[6] = tested on: A498 renal
[7] = tested on: DU-145 prostate
[8] = tested on: BT-549 breast
[9] = tested on: HCT-116 colon
[10] = tested on: LOX IMVI melanoma
[11] = tested on: MCF7 breast
[12] = tested on: KM12 colon
[13] = tested on: HOP-92 NSCLC
[14] = tested on: U251 CNS
[15] = tested on: MDA-MB-231 breast
[16] = tested on: TK-10 renal
[17] = tested on: T-47D breast
[18] = tested on: ACHN renal

`CN(/N=C(\C(=O)O)c1ccccc1)C1=NCCCN1` was tested, and the TGI [1] was > 100 µM, the TGI [2] was > 100 µM and the TGI [3] was > 100 µM. The TGI [4] was > 100 µM, the TGI [5] was > 100 µM and the TGI [6] was > 100 µM. For the same molecule, the TGI [7] was > 100 µM, the TGI [8] was > 100 µM and the TGI [9] was > 100 µM. For the same molecule, the TGI [10] was > 100 µM, the TGI [11] was > 100 µM and the TGI [12] was > 100 µM. For the same molecule, the TGI [13] was > 100 µM, the TGI [14] was > 100 µM and the TGI [15] was > 100 µM. The TGI [16] was > 100 µM, the TGI [17] was > 100 µM and the TGI [18] was > 100 µM.
For `CC1C(c2ccccc2)OP(=O)(OC(C#N)c2ccccc2)N1C` (stereo not given), the TGI [1] was > 100 µM, the TGI [2] was > 100 µM and the TGI [3] was > 100 µM. For the same molecule, the TGI [4] was > 100 µM, the TGI [5] was > 100 µM and the TGI [6] was > 100 µM. The TGI [7] was > 100 µM, the TGI [8] was > 100 µM and the TGI [9] was > 100 µM. The TGI [10] was > 100 µM, the TGI [11] was > 100 µM and the TGI [12] was > 100 µM. For the same molecule, the TGI [13] was > 100 µM, the TGI [14] was > 100 µM and the TGI [15] was > 100 µM. The TGI [16] was > 100 µM, the TGI [17] was > 100 µM and the TGI [18] was > 100 µM.
`C#CCOCC12C=CC(O1)C1C(=O)N(C)C(=O)C12` (stereo not given) was tested, and the GI50 [1] was 46.4 µM and > 100 µM, the TGI [1] was > 100 µM and the TGI [2] was > 100 µM. The TGI [3] was > 100 µM, the TGI [4] was > 100 µM and the TGI [5] was > 100 µM. For the same molecule, the TGI [6] was > 100 µM, the TGI [7] was > 100 µM and the TGI [8] was > 100 µM. The TGI [9] was > 100 µM, the TGI [10] was > 100 µM and the TGI [11] was > 100 µM. The TGI [12] was > 100 µM, the GI50 [13] was > 100 µM and the TGI [13] was > 100 µM. The TGI [14] was > 100 µM, the TGI [15] was > 100 µM and the TGI [16] was > 100 µM. The TGI [17] was > 100 µM and the TGI [18] was > 100 µM.
For `CC12Nc3ccccc3N1C(=O)c1ccccc12` (stereo not given), the TGI [1] was > 100 µM, the TGI [2] was > 100 µM and the TGI [3] was > 100 µM. The TGI [4] was > 100 µM, the TGI [5] was > 100 µM and the TGI [6] was > 100 µM. The TGI [7] was > 100 µM, the TGI [8] was > 100 µM and the TGI [9] was > 100 µM. The TGI [10] was > 100 µM, the TGI [11] was > 100 µM and the TGI [12] was > 100 µM. The TGI [13] was > 100 µM, the TGI [14] was > 100 µM and the TGI [15] was > 100 µM. The TGI [16] was > 100 µM, the TGI [17] was > 100 µM and the TGI [18] was > 100 µM.
For `COc1ccc(NC(=O)CC(=O)N2N=C(C)C(N=Nc3ccc(S(=O)(=O)c4ccc(N=NC5C(=O)N(C(=O)CC(=O)Nc6ccc(OC)cc6)N=C5C)cc4)cc3)C2=O)cc1` (stereo not given), the TGI [1] was > 100 µM, the TGI [2] was > 100 µM and the TGI [3] was > 100 µM. For the same molecule, the TGI [4] was > 100 µM, the TGI [5] was > 100 µM and the TGI [6] was > 100 µM. For the same molecule, the TGI [7] was > 100 µM, the TGI [8] was > 100 µM and the TGI [9] was > 100 µM. The TGI [10] was > 100 µM, the TGI [11] was > 100 µM and the TGI [12] was > 100 µM. For the same molecule, the TGI [13] was > 100 µM, the TGI [14] was > 100 µM and the TGI [15] was > 100 µM. The TGI [16] was > 100 µM, the TGI [17] was > 100 µM and the TGI [18] was > 100 µM.
For `CC1=C(N2CC2)C(=O)c2nc3n(c2C1=O)CCC3OC(=O)CCl` (stereo not given), the TGI [1] was 1.61 µM, the TGI [2] was 0.0617 µM and the TGI [3] was 0.191 µM. For the same molecule, the TGI [4] was 0.337 µM, the TGI [5] was 0.152 µM and the TGI [6] was 0.13 µM. For the same molecule, the TGI [7] was 0.19 µM, the TGI [8] was 0.0444 µM and the TGI [9] was 0.383 µM. It also gave a TGI [10] of 0.117 µM, a TGI [11] of 0.0468 µM and a TGI [12] of 0.0977 µM. The TGI [13] was 8.04 µM, the TGI [14] was 0.237 µM and the TGI [15] was > 100 µM. For the same molecule, the TGI [16] was 0.639 µM, the TGI [17] was 3.88 µM and the TGI [18] was 0.216 µM.
`COCn1c2ccc(OC(C)=O)cc2c2c(=O)oc(N(C)C)nc21` was tested, and the TGI [1] was > 100 µM, the TGI [2] was > 100 µM and the TGI [3] was > 100 µM. The TGI [4] was > 100 µM, the TGI [5] was > 100 µM and the TGI [6] was > 100 µM. The TGI [7] was > 100 µM, the TGI [8] was > 100 µM and the TGI [9] was > 100 µM. For the same molecule, the TGI [10] was > 100 µM, the TGI [11] was > 100 µM and the TGI [12] was > 100 µM. For the same molecule, the TGI [13] was > 100 µM, the TGI [14] was > 100 µM and the TGI [15] was > 100 µM. The TGI [16] was > 100 µM, the TGI [17] was > 100 µM and the TGI [18] was > 100 µM.
In the case of `COC(=O)c1ccc2c(O)c(O)ccc2c1`, the TGI [1] was 5.43 µM, the TGI [2] was 29.1 µM and the TGI [3] was 29.3 µM. For the same molecule, the TGI [4] was 33.7 µM, the TGI [5] was 34.2 µM and the TGI [6] was 47.7 µM. For the same molecule, the TGI [7] was 30.1 µM, the TGI [8] was 27.2 µM and the TGI [9] was 32 µM. It also gave a TGI [10] of 11.5 µM, a TGI [11] of 36.6 µM and a TGI [12] of 30.8 µM. For the same molecule, the TGI [13] was 33.6 µM, the TGI [14] was 27.5 µM and the TGI [15] was 15.4 µM. For the same molecule, the TGI [16] was 36.2 µM, the TGI [17] was 42.6 µM and the TGI [18] was 30.9 µM.
Work on `CCC1C(c2cc(OC)c(OC)c(OC)c2)c2cc3c(cc2OC1N1CCCC1)OCO3` (stereo not given) yielded a TGI [1] of 8.62 µM, a TGI [2] of 10.1 µM and a TGI [3] of 22.2 µM. The TGI [4] was 10.9 µM, the TGI [5] was 5.53 µM and the TGI [6] was 14 µM. For the same molecule, the TGI [7] was 14.6 µM, the TGI [8] was 49.4 µM and the TGI [9] was 11.5 µM. It also gave a TGI [10] of 22 µM, a TGI [11] of 13.7 µM and a TGI [12] of 22 µM. For the same molecule, the TGI [13] was 21.3 µM, the TGI [14] was 11.7 µM and the TGI [15] was 20.5 µM. The TGI [16] was 40.3 µM, the TGI [17] was 41.9 µM and the TGI [18] was 26.6 µM.
With `O=C(O[C@H]1[C@@H](O)[C@H](n2cnc3c(Cl)ncnc32)O[C@@H]1COC(c1ccccc1)(c1ccccc1)c1ccccc1)c1ccccc1` the TGI [1] was > 100 µM, the TGI [2] was 91.5 µM and the TGI [3] was 58.1 µM. For the same molecule, the TGI [4] was 62.1 µM, the TGI [5] was 47.3 µM and the TGI [6] was 31 µM. For the same molecule, the TGI [7] was 3.85 µM, the TGI [8] was 97.7 µM and the TGI [9] was > 100 µM. For the same molecule, the TGI [10] was > 100 µM, the TGI [11] was 23.4 µM and the TGI [12] was 41.7 µM. For the same molecule, the TGI [13] was 44.8 µM, the TGI [14] was 59.2 µM and the TGI [15] was 51.1 µM. The TGI [16] was > 100 µM, the TGI [17] was 24.9 µM and the TGI [18] was 31 µM.
For `COc1cc(/C=C2/CCS(=O)(=O)c3ccc(C)cc3C2=O)cc(OC)c1OC`, the TGI [1] was 4.06 µM, the TGI [2] was 12.4 µM and the TGI [3] was > 35.4 µM. For the same molecule, the TGI [4] was > 33.8 µM, the TGI [5] was 7.05 µM and the TGI [6] was 23.7 µM. The TGI [7] was > 27.6 µM, the TGI [8] was > 26.3 µM and the TGI [9] was 11.2 µM. The TGI [10] was 6.4 µM, the TGI [11] was 14.9 µM and the TGI [12] was > 41.2 µM. The TGI [13] was > 43.2 µM, the TGI [14] was > 31 µM and the TGI [15] was 11.2 µM. The TGI [16] was > 44.5 µM, the TGI [17] was > 52.7 µM and the TGI [18] was 14.2 µM.
